In patent publication US20220087983A1, “ACTIVATING PYRUVATE KINASE R” (FORMA Therapeutics, Inc., priority 2020, published 2022):
Values joined by “and” are separate entries in the source; they are usually repeats but may differ in a detail not shown here. Equal values may be shown once. “Also recorded” adds a separate entry of the source.

Assays:
[1] = molecular target: T1, PKR in mouse RBCs (Mus musculus, UniProt P53657); assay: PKR activation in mouse red blood cells; format: cell-based
T1 construct: endogenous in cells; host or cells: mouse RBCs freshly isolated from whole blood
T1 sequence (P53657 whole entry): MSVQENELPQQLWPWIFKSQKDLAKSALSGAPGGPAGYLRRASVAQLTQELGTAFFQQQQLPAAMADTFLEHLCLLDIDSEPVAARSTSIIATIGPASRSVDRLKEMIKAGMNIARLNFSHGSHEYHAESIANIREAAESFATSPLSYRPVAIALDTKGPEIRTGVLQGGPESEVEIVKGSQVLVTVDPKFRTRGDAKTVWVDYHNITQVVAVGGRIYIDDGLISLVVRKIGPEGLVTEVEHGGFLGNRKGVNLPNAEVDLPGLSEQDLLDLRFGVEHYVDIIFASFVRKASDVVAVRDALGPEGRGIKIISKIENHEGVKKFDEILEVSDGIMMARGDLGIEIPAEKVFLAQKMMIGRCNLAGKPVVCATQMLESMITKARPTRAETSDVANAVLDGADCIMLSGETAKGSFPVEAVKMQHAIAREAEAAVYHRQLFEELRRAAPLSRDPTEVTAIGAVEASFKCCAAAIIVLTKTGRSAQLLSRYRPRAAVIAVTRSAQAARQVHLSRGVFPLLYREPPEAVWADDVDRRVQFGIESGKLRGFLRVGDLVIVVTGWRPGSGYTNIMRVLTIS
From the text: Mouse RBCs were isolated fresh from whole blood using a Ficoll gradient and assayed with methods similar to those used in the human RBCs assays.

[2] = Phase 1: safety, adverse events in healthy volunteers; format: in vivo, human
Protocol: (§1) In this study, SAD/MAD cohorts are randomized (3 to 1) to receive Compound 1 or placebo (P). Compound 1 was evaluated first in 4 healthy SAD cohorts and 4 healthy MAD (14-day dosing period) cohorts. Based on the safety, and PK/PD profile from HS, Compound 1 is then evaluated in 1 SCD SAD cohort and 2 SCD MAD cohorts. Specifically, based on the safety and pharmacokinetic/pharmacodynamics (PK/PD) profile in healthy volunteer studies, Compound 1 is evaluated in patients (pts) with SCD, first in a single dose (SD or SAD) cohort and then in multiple-dose (MD or MAD) cohorts (14-day and 12-week). Safety assessments include AEs, vital signs, ECGs and laboratory parameters. PK/PD blood sampling was performed on Day 1 (SAD/MAD) and Day 14 (MAD) and up to 72 h after the last dose and at the end-of-study visit. PD parameters included 2,3-DPG, ATP, and p50 in all cohorts with additional PD studies (including oxygen scan) performed only in the SCD cohorts. PD parameters included 2,3-DPG, ATP, p50, RBC deformability with controlled deoxygenation and reoxygenation (Lorrca® oxygen scan) and varying osmolality (Lorrca® osmoscan)). To maintain study blind, pt identifiers were removed when needed.
Primary Outcome Measures: • 1. Incidence, frequency, and severity of adverse events (AEs) per CTCAE v5.0 of a single ascending dose and multiple ascending doses of Compound 1 in adult healthy volunteers and SCD patients. Incidence of abnormal laboratory test results (clinical chemistry, endocrine hematology, urinalysis). Change from baseline in vital signs (blood pressure, respiratory rate, heart rate, and oral temperature). […] Area under the plasma concentration-time curve from time zero until last quantifiable time point (AUC0-last) • [Time Frame: Up to 3 weeks of testing] • 6. […]
Among the TEAEs reported in Table 13, TEAEs of grade 2 or less related to Compound 1 in the SAD cohorts included headache (n=1) and transient ventricular tachycardia (n=1), each in a different subject. […] The subject's back-up sample was re-assessed independently, and no lipase elevation was detected.

[3] = tested on: estradiol and testosterone levels; assay: Circulating estradiol and testosterone in healthy subjects, 14 days; format: in vivo, human; conditions: up to 14 days, 100-300 mg BID, 400 mg QD
Protocol: Effects on circulating levels of estradiol and testosterone in male and female healthy subjects receiving Compound 1 or placebo for a treatment period of 14 days were evaluated. Compound 1 was administered twice daily (BID) at dose levels of 100 mg, 200 mg, and 300 mg, and once daily (QD) at a dose level of 400 mg. Each dosing cohort was comprised of 9 subjects treated with Compound 1 and 3 subjects treated with placebo. Testosterone and estradiol levels were assessed prior to dosing (baseline), and then on days 8, 14 and 17.

[4] = tested on: ATP blood levels; assay: Phase 1: blood ATP levels in SCD patients; format: in vivo, human; conditions: single 700 mg dose (FIG. 54A)
Protocol: as §1, with “PD parameters included 2,3-DPG, ATP, and p50 in all cohorts with additional PD studies (including oxygen scan) performed only in the SCD cohorts. PD parameters included 2,3-DPG, ATP, p50, RBC deformability with controlled deoxygenation and reoxygenation (Lorrca® oxygen scan) and varying osmolality (Lorrca® osmoscan)). To maintain study blind, pt identifiers were removed when needed.” left out
The following table reports the mean percentage change in ATP blood levels, relative to baseline, measured over time in SCD patients after a single dose of Compound 1 (700 mg):
ATP levels were increased from baseline in patients receiving Compound 1, resulting in improved RBC function and reduced hemoloysis. The following table reports the mean percentage change in ATP blood levels, relative to baseline, measured over time after the first dose on days 1 and 14 in SCD patients who received daily doses of Compound 1 (300 mg QD) for 14 days: […]

[5] = tested on: H295R adreno-cortical carcinoma cell line; assay: Cell viability (MTT Kit); format: cell-based; conditions: at 200 μM
Protocol: To assess potential effects on steroidogenesis, Compound 1 was screened for steroid modulation in vitro using the H295R adreno-cortical carcinoma cell line (at 200 to 0.0002 μM) and in an assay to monitor cell viability (MTT Kit). Compound 1 indicated steroid modulation potential (% over vehicle) only at 200 μM, the top concentration tested, with 100% cellular viability at concentrations≤20 μM (90% viability at 200 μM).

[6] = molecular target: T2, CYP3A4 (Homo sapiens, UniProt P08684); assay: Single substrate DDI assay, reversible CYP inhibition in human liver microsomes; format: in vitro ADME
T2 construct: from tissue; host or cells: human liver microsomes
T2 sequence (P08684 whole entry): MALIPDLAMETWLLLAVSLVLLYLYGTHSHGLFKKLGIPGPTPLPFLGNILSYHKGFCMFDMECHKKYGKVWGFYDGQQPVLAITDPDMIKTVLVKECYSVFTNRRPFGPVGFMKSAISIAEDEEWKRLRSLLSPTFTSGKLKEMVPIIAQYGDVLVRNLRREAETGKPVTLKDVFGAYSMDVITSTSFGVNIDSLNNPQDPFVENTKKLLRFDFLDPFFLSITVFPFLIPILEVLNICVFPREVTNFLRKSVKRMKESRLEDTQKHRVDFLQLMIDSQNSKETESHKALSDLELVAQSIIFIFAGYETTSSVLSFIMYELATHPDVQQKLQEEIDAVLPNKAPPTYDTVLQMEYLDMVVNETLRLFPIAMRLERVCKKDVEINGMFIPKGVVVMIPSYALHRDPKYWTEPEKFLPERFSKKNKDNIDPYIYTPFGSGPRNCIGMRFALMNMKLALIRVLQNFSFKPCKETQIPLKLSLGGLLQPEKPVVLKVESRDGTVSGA

[7] = tested on: CYP2B6; assay: CYP mRNA induction in cultured human hepatocytes; format: in vitro ADME; conditions: donors AIH, EUJ, HC5-40 individually
[8] = Log D7.4; format: physicochemical; conditions: pH 7.4

O=C([C@H](CO)c1ccccc1)N1CC2=C(C1)CN(S(=O)(=O)c1cnc3c(c1)OCCO3)C2 (single isomer, unassigned) [Compound 1]
Max − Min (%) ([1]; individual replicates 1-2): <50% and <100% | Mean Max − Min (%) ([1]; mean): <100% | Grade 1 headache incidence ([2]; HS receiving 14 days): 28% | Grade 1 headache incidence ([2]; HS receiving a single dose): 4% | serious adverse events or AEs leading to withdrawal ([2]; HV SAD and MAD cohorts): No serious adverse events (SAEs) or AEs leading to withdrawal | effect on testosterone and estradiol levels [3]: No effect; also recorded: no statistically significant changes | lag of maximum ATP increase behind maximum plasma concentration [4]: at least 24 hours | cellular viability [5]: 90% | IC50 [6]: > 30 µM | mRNA Fold Induction CYP2B6 ([7]; 0.033 μM): 1.17 fold | mRNA Fold Induction CYP2B6 ([7]; 0.1 μM): 1.23 fold and 1.06 fold | mRNA Fold Induction CYP2B6 ([7]; 0.33 μM): 1.10 fold and 0.964 fold | mRNA Fold Induction CYP2B6 ([7]; 1 μM): 1.29 fold | mRNA Fold Induction CYP2B6 ([7]; 3.3 μM): 1.24 fold | mRNA Fold Induction CYP2B6 ([7]; 10 μM): 1.43 fold and 1.21 fold | fold induction at 1 µM ([7]; human, 1 μM): 1.07 | fold induction at 3.3 µM ([7]; human, 3.3 μM): 1.25 | fold induction at 0.033 µM ([7]; human, primary cultured human hepatocytes, 0.033 μM): 0.982 | fold induction at 0.1 µM ([7]; human, primary cultured human hepatocytes, 0.1 μM): 1.01 | fold induction at 0.33 µM ([7]; human, primary cultured human hepatocytes, 0.33 μM): 1 | fold induction at 1 µM ([7]; human, primary cultured human hepatocytes, 1 μM): 1 | fold induction at 3.3 µM ([7]; human, primary cultured human hepatocytes, 3.3 μM): 1.26 | fold induction at 10 µM ([7]; human, primary cultured human hepatocytes, 10 μM): 1.7 | logD [8]: 1.09
